Test [1] relates to OVCAR-3, HaCaT and HDF cells. Briefly: Cell survival rate with D-allose combined with DMSO at low concentration (Example 2). It counts as cell-based, human. As to conditions: 1 or 2% of DMSO with addition of D-allose (FIG. 9). The protocol:
1. Cells used: Hela (human cervical cancer), OVCAR-3 (human ovarian cancer), HaCaT (human skin keratinocyte), HFB (human fibroblast) and NIH3T3 (mouse fibroblast). Saccharides D-allose and the like were added to culture medium, Cell Banker (commercially available preservative solution) and DMSO at concentrations of 0.2, 0.4, 0.6, 0.8 and 1M. Monosaccharides such as D-glucose, D-fructose, D-mannose and D-galactose which are present in nature in large quantities and D-allose, D-altrose, D-psicose, L-psicose, D-sorbose, L-sorbose, D-tagatose, L-tagatose and L-fructose as rare sugars were used. Further, trehalose as disaccharide was used. The cells frozen with D-allose were freeze-preserved at −80° C. and in liquid nitrogen for 24 hours, 1 week and 4 weeks. 1) Survival rate of cells: The cells were thawed, and the survival rate was estimated by a trypan blue dying method. 6) The effect of cell preservation under sub-optimal conditions by reducing the concentration of DMSO to 1, 2 or 3% was comparatively examined. OVCAR-3, HaCaT and HDF cells were used as cells. Regarding the preservation effect with DMSO, it was confirmed that the survival rate was approximately 70% or more with the use of 1 or 2% of DMSO by addition of D-allose (FIG. 9).

The test system of test [2] is Hela, OVCAR-3, HaCaT, HFB and NIH3T3 cells. Briefly: Cell growth after thawing of cells freeze-preserved at optimum concentrations, MTT assay (Example 2). It counts as cell-based, human, mouse. The protocol:
1. Cells used: Hela (human cervical cancer), OVCAR-3 (human ovarian cancer), HaCaT (human skin keratinocyte), HFB (human fibroblast) and NIH3T3 (mouse fibroblast). Saccharides D-allose and the like were added to culture medium, Cell Banker (commercially available preservative solution) and DMSO at concentrations of 0.2, 0.4, 0.6, 0.8 and 1M. Monosaccharides such as D-glucose, D-fructose, D-mannose and D-galactose which are present in nature in large quantities and D-allose, D-altrose, D-psicose, L-psicose, D-sorbose, L-sorbose, D-tagatose, L-tagatose and L-fructose as rare sugars were used. Further, trehalose as disaccharide was used. The cells frozen with D-allose were freeze-preserved at −80° C. and in liquid nitrogen for 24 hours, 1 week and 4 weeks. 2) Cell growth: The cells were freeze-preserved with D-allose and trehalose at optimum concentrations for 24 hours, thawed, and spread on a 96-well plate such that the concentration was 0.5-1×10^4 cells/well/0.1 ml. After a prescribed period of time, the cell growth was measured by MTT assay.

In test [3] the test system is NIH3T3 (mouse fibroblast). Briefly: Cell growth after thawing of freeze-preserved cells, MTT assay (Example 1). It counts as cell-based. As to conditions: same experiment as with HFB. As for the experimental part:
(§1) 1. Cells used: Hela (human cervical cancer), OVCAR-3 (human ovarian cancer), HuH-7 (human liver cancer), HaCaT (human skin keratinocyte), HFB (human fibroblast) and NIH3T3 (mouse fibroblast). Saccharides D-allose and the like were added to culture medium, Cell Banker (commercially available preservative solution) and DMSO at concentrations of 25 mM and 50 mM. Monosaccharides such as D-glucose, D-fructose, D-mannose and D-galactose which are present in nature in large quantities and D-allose, D-psicose, D-altrose, allitol, D-talitol and L-sorbose as rare sugars were used. Further, trehalose as disaccharide was used. The cells were preserved for 24 hours by being frozen at −80° C. 2) Cell growth: One day later, the cells were thawed, and 0.25˜2×10^4 cells/well were spread on 96-well plate with 0.1 mL medium. After a prescribed period of time, the cell growth was measured by MTT assay.
Background: Tetrazolium assays rely on reduction of a dye to a coloured formazan, in cell work by metabolically active cells.

Test [4] relates to HFB (human fibroblast). Described as above. As to conditions: culture medium plus sugar, in comparison with other cases (FIG. 2). It counts as cell-based. The protocol: as §1
Test [5] concerns human sperms. Briefly: Movement rate of frozen and thawed sperms, visual observation with Makler Counting Chamber. It counts as cell-based. As to conditions: KS-II solution with D-allose alone versus glucose only, liquid nitrogen 1 month, P=0.0469 (FIG. 16). The protocol:
Semens of ten healthy men who were 24 to 44 years old (mean: 29.9) with normal semens were used.
The semen was manually collected after abstinence for 3 to 5 days, liquefied at room temperature, and then washed and concentrated by a 80% Percoll liquid agitation density gradient method. The resulting sperm turbid solution (0.2 ml) and the freeze-preservative solution were mixed in equal amounts, and the mixture was charged into a freezing tube (serum tube, Sumitomo Bakelite), frozen by a liquid nitrogen vapor freezing method, and then preserved in a liquid nitrogen tank. The freeze-preservative solution (refer to FIG. 14) was used such that the mixing amounts of D-allose and D-glucose were changed (A group=1:0, B group=3:1, C group=1:1, D group=1:3, E group=0:1) without changing the number of moles of the sugar in a KS-II sperm preservative solution. One month later, the frozen sperms were thawed in warm water (30° C.) with shaking. Further, for removal of the freeze-preservative solution and reconcentration, the density gradient centrifugation method was conducted, and the resulting sperm floating solution was examined.
As the examination method, the sperm movement rate was measured by a visual observation method with Makler Counting Chamber and C-IMAGING SYSTEMS, and the survival rate was measured by 0.5% Eosin Y dying. […]

The test system of test [6] is CINC-1. In words: Renal ischemic reperfusion model, CINC-1 protein amount. As to conditions: 400 mg/kg intravenously 30 minutes before renal ischemia, 45 minutes clamp (FIG. 12). It counts as in vivo, rat. The protocol: Object: male rats with a body weight of 200˜250 g Experimental method: After anesthetization of a rat with nenbutal, a renal ischemic model is prepared. Renal ischemic model: After extraction of the right kidney, the left kidney blood vessel is clamped for 45 minutes. 400 mg/kg of the solution is intravenously administered to the D-allose group 30 minutes before the renal ischemia. A raw feed is administered to the control group. Estimation: Change with time of a CINC-1 protein amount and MPO as an index of accumulation of leukocytes after ischemic reperfusion

Test [7] has as its system rat kidney. As to conditions: pre-administration, cited from earlier work.
For test [8] the following is noted: Murata et al., J. Bioengineering and Bioscience, 2003; cited from earlier work.

Where only a bound is given, the exact number is not on record here.

Regarding `O=C[C@H](O)[C@H](O)[C@H](O)[C@H](O)CO` [D-allose], the survival rate in test [1] is on record as not below 70%. Also, the “growth rate of cells after thawing” value is listed as “higher in growth rate” in test [2] (freeze-preserved 24 hours at optimum concentration, versus other cases (FIG. 8)); “the same results were obtained” in test [3]; “growth rate was high” in test [4]. Also, the “functional impairment of frozen cells” value in test [2] (versus commercially available Cell Banker cell preservative solution) was “less impaired functionally”. The “movement rate of thawed sperms” value in test [5] was “high in movement rate of thawed sperms in the eight of nine cases”. The “CINC-1 protein amount after ischemic reperfusion” value in test [6] was “significantly decreased”. Also, in test [7] (rat kidney (WO 03/097820)), the “activation and floating of neutrophils after ischemic reperfusion” value is “inhibits”. Besides, in test [7] (rat kidney ischemic reperfusion (WO 03/097820)), the “functional disorder of the kidney” value is on record as “decreases”. The antioxidation activity result in test [8] is on record as “proved to have the antioxidation activity”.

The values are drawn from patent publication US9237744B2, “Preservative solution for cells, tissues and organs containing rare sugar and preservative method thereof” (NATIONAL UNIVERSITY CORPORATION KAGAWA UNIVERSITY, priority 2004, dated 2016).
